Entries after “also recorded” stand apart in the source; their conditions may differ. Read-outs that look alike come from different tables or passages of the source.
Key:
lipase [1] = assay type: biochemical, Pseudomonas fragi 22.39B; details: for Effect of metal ions on the enzyme (in words): summary statement
Procedure: Thus, the chemical and physical properties, by which the inventive novel lipase is characterized, are as described below. The activity of the enzyme has been determined by the PVA emulsion method proposed by Yamada, et al. and described in Journal of the Agricultural Chemical Society of Japan, volume 36, page 860 (1962) with some modifications if not mentioned otherwise, taking an amount of the enzyme liberating a micro- equivalent of a fatty acid for 1 minute as one unit (U) (see Japanese Patent Publication 56-28517).
The influence of metal ions on the enzymatic actvity was examined by keeping a 9:1 by volume mixture of a 5U/ml solution of the enzyme and a 10 mM solution of the metal ions at 25°C for 30 minutes followed by the determination of the residual activity of the enzyme in the solution. No calcium chloride was contained in the reaction mixture.

lipase [2] = assay: Substrate specificity: relative rate of decomposition of esters, oils and fats (shaking method); assay type: biochemical, Pseudomonas fragi 22.39B; details: for Relative rate of decomposition, %: ester as the substrate, triolein as the reference (100), shaking method, pH 9.0, 37°C, 30 minutes; for Activity of the enzyme for the decomposition of the substrate (in words): summary statement
Excerpt: The enzyme is active for the decomposition of the substrate, such as various kinds of esters and naturally occurring oils and fats. Tables 1-1 and 1-2 given below give the relative rate of decomposition of esters (Table 1-1) and naturally occurring oils and fats (Table 1-2) in % taking triolein and olive oil, respectively, as the reference.
Different from the above mentioned standard procedure of the PVA emulsion method, the results tabulated in Tables 1-1 and 1-2 were obtained by the shaking method according to the conditions and procedures described below.
The solution described above was taken in an Erlenmeyer flask of 100 ml capacity and shaken for 30 minutes in a thermostat at 37°C at a rate of 90 rpm along an 8-shaped line. After completion of the above mentioned reaction time, 20 ml of a 1:1 mixture of acetone and ethyl alcohol were added to the flask and the resultant solution was titrated within a length of time with a 0.05N aqueous solution of sodium hydroxide using phenol phthalein as the indicator.

lipase [3] = assay: Influence of surface active agents on the enzymatic activity (residual activity); assay type: biochemical, Pseudomonas fragi 22.39B; details: for Residual activity, %: 9:1 by volume mixture of 10 U/ml enzyme solution and 4% aqueous solution of surface active agent, 25°C, 30 minutes; for Effect of surface active agents on the enzyme (in words): summary statement
Procedure: Thus, the chemical and physical properties, by which the inventive novel lipase is characterized, are as described below.
Similarly, the influence of surface active agents on the enzymatic activity was examined by keeping a 9:1 by volume mixture of a 10 U/ml solution of the enzyme and a 4% aqueous solution of the surface active agent at 25°C for 30 minutes followed by the determination of the residual activity of the enzyme in the solution.

lipase [4] = details: Biochim. Biophys. Acta 488, 353-358 (1977); cited from earlier work
lipase [5] = details: J. Ferment. Technol. 49, 128 (1971); Japanese Patent Publication 50-25553; cited from earlier work
lipase [6] = details: J. Ferment. Technol. 49, 128 (1971); Japanese Patent Publication 50-25553; cited from earlier work; remark: listed apart in the source
lipase [7] = target: T1, lipase (Pseudomonas fragi, UniProt P08658); details: J. Gen. Microbiol. 48, 317-328 (1967); cited from earlier work
T1 sequence (P08658 1-293): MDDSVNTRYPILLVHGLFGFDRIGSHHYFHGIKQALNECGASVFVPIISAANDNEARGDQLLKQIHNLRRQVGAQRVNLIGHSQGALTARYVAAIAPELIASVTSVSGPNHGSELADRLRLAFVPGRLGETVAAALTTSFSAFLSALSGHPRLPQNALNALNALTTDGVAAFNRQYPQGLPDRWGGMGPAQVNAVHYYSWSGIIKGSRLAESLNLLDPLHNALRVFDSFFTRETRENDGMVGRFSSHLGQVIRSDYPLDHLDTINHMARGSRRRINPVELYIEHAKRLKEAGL

lipase [8] = target: lipase (Pseudomonas aeruginosa, UniProt P26876); details: Biochim. Biophys. Acta 206, 380-391 (1970); cited from earlier work
lipase [9] = details: Biochim. Biophys. Acta 488, 353-358 (1977); cited from earlier work; remark: listed apart in the source
[10] = 9:1 by volume mixture of 5U/ml enzyme solution and 10 mM metal ion solution, 25°C, 30 minutes, no calcium chloride

Sequence of lipase (Pseudomonas aeruginosa, UniProt P26876) (P26876 27-311): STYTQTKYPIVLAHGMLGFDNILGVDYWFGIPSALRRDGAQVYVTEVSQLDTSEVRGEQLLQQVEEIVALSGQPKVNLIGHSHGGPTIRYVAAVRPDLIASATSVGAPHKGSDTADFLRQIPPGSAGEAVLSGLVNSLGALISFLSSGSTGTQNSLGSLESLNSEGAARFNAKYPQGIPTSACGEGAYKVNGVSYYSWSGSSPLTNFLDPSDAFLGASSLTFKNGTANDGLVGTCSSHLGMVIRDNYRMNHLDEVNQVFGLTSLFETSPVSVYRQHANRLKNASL

In the case of `[Cl][Ag]` [AgCl], the “Residual activity, %” value (lipase [1]; [10]) is reported as 93.6%.
For `[Cl][Al]([Cl])[Cl]` [AlCl3], the “Residual activity, %” value (lipase [1]; [10]) was 93.6%.
In the case of `[Ba+2].[Cl-].[Cl-]` [BaCl2], the “Residual activity, %” value (lipase [1]; [10]) is reported as 92.7%.
In the case of `CCCCCCCC/C=C\CCCCCCCC(=O)OCCCC` [Butyl oleate], the “Relative rate of decomposition, %” value (lipase [2]) is reported as 95% and the “Activity of the enzyme for the decomposition of the substrate (in words)” value (shortened to “Activity of the enzyme”) (lipase [2]) is reported as “Active; also recorded: good activity”.
In the case of `[Ca+2].[Cl-].[Cl-]` [CaCl2], the “Residual activity, %” value (lipase [1]; [10]) is reported as 105.5%.
In the case of `CCCCCCCCCCCCCCCC[N+](C)(C)C.[Br-]` [Cetyl trimethyl ammonium bromide], the “Residual activity, %” value (lipase [3]) is reported as 12% and the “Effect of surface active agents on the enzyme (in words)” value (lipase [3]) is reported as “deactivated”.
In the case of `[Cl-].[Cl-].[Co+2]` [CoCl2], the “Residual activity, %” value (lipase [1]; [10]) is reported as 86.6%.
For `[Cl][Cu][Cl]` [CuCl2], the “Residual activity, %” value (lipase [1]; [10]) was 90.8%.
For `CCCCCCCCCCCC[N+](C)(C)C.[Cl-]` [Dodecyl trimethyl ammonium chloride], the “Residual activity, %” value (lipase [3]) was 35%.
With `CCCCCCCC/C=C\CCCCCCCC(=O)OCC` [Ethyl oleate] the “Relative rate of decomposition, %” value (lipase [2]) was 59%.
For `[Cl][Fe][Cl]` [FeCl2, iron (II) chloride], the “Residual activity, %” value (lipase [1]; [10]) was 36.7% and the “Effect of metal ions on the enzyme (in words)” value (from here on “Effect of metal ions”) (lipase [1]) was “Deactivated”.
For `[Cl][Fe]([Cl])[Cl]` [FeCl3, iron (III) chloride], the “Residual activity, %” value (lipase [1]; [10]) is given as 33.0%, the “Effect of metal ions” value (lipase [1]) is given as “Deactivated” and the “Activation and deactivation (in words)” value (lipase [4]) is given as “Almost no deactivation”. The “Activation and deactivation (in words)” value (lipase [5]) was “Inhibited”.
For `[Cl][Hg][Cl]` [HgCl2, mercury (II) chloride], the “Residual activity, %” value (lipase [1]; [10]) is given as 83.5%, the “Activation and deactivation (in words)” value (lipase [4]) is given as “Almost no deactivation” and the “Activation and deactivation (in words)” value (lipase [5]) is given as “Inhibited”.
In the case of `CCCC(=O)OC` [Methyl butyrate], the “Relative rate of decomposition, %” value (lipase [2]) is listed as 23%, the “Substrate specificity (in words)” value (lipase [6]) is listed as “little active” and the “Substrate specificity (in words)” value (lipase [7]) is listed as “inactive”.
In the case of `CCCCCCCC/C=C\CCCCCCCC(=O)OC` [Methyl oleate], the “Relative rate of decomposition, %” value (lipase [2]) is reported as 87%, the “Activity of the enzyme” value (lipase [2]; listed as methyl - oleate) is reported as “good activity” and the “Activity of the enzyme” value (lipase [2]; listed as methyl oleate) is reported as “Active”. The “Substrate specificity (in words)” value (lipase [7]) was “inactive”.
For `[Cl-].[Cl-].[Mg+2]` [MgCl2], the “Residual activity, %” value (lipase [1]; [10]) was 97.2%.
For `[Cl][Mn][Cl]` [MnCl2], the “Residual activity, %” value (lipase [1]; [10]) was 81.7%.
In the case of `[Cl][Ni][Cl]` [NiCl2], the “Residual activity, %” value (lipase [1]; [10]) is reported as 98.9%.
With `[Cl][Pb][Cl]` [PbCl2] the “Residual activity, %” value (lipase [1]; [10]) was 78.0%.
In the case of `CCCCCCCC/C=C\CCCCCCCC(=O)OCCOCC(OCCO)C1OCC(OCCO)C1OCCO` (stereo not drawn) [Polyoxyethylene sorbitan monooleate], the “Relative rate of decomposition, %” value (lipase [2]) is reported as 50% and the “Residual activity, %” value (lipase [3]) is reported as 115%.
With `[Cl][Sn][Cl]` [SnCl2] the “Residual activity, %” value (lipase [1]; [10]) was 79.8%.
In the case of `[Cl-].[Cl-].[Sr+2]` [SrCl2], the “Residual activity, %” value (lipase [1]; [10]) is reported as 92.7%.
With `CC(=O)OCC(COC(C)=O)OC(C)=O` [Triacetin] the “Relative rate of decomposition, %” value (lipase [2]) was 108% and the “Activity of the enzyme” value (lipase [2]) was “highly active”.
In the case of `CCCC(=O)OCC(COC(=O)CCC)OC(=O)CCC` [Tributyrin], the “Relative rate of decomposition, %” value (lipase [2]) is listed as 243%, the “Activity of the enzyme” value (lipase [2]) is listed as “highly active” and the “Substrate specificity (in words)” value (lipase [6]) is listed as “Active”. The “Substrate specificity (in words)” value (lipase [8]) was “Active” and the “Substrate specificity (in words)” value (lipase [7]) was “Active”.
For `[Cl-].[Cl-].[Zn+2]` [ZnCl2, zinc chloride], the “Residual activity, %” value (lipase [1]; [10]) was 34.9%, the “Effect of metal ions” value (lipase [1]) was “Deactivated” and the “Effect of metal ions” value (lipase [1]; listed as Zn^2+) was “deactivated; also recorded: deactivating effect”.
In the case of `CCCCCCCCCCCC[N+](C)(C)C.[Br-]` [n-Dodecyl trimethyl ammonium bromide], the “Residual activity, %” value (lipase [3]) is reported as 46%.
In the case of `CCCCCCCCCCCCCCCC(=O)OCC(COC(=O)CCCCCCCCCCCCCCC)OC(=O)CCCCCCCCCCCCCCC` [tri- palmitin], the “Substrate specificity (in words)” value (lipase [9]) is listed as “Active”.
For `CCCCCC(=O)OCC(COC(=O)CCCCC)OC(=O)CCCCC` [tricaproin], the “Substrate specificity (in words)” value (lipase [9]) is given as “Active”.
In the case of `CCCCCCCCCCCCCC(=O)OCC(COC(=O)CCCCCCCCCCCCC)OC(=O)CCCCCCCCCCCCC` [trimyristin], the “Substrate specificity (in words)” value (lipase [6]) is given as “Active”.
For KCl, the “Residual activity, %” value (lipase [1]; [10]) was 98.0%.
In the case of LiCl, the “Residual activity, %” value (lipase [1]; [10]) is reported as 97.5%.
For NaCl, the “Residual activity, %” value (lipase [1]; 1000 µM) was 98.0%.
For Polyoxyethylene (10) octyl phenyl ether, the “Residual activity, %” value (lipase [3]) was 105% and the “Effect of surface active agents on the enzyme (in words)” value (lipase [3]) was “somewhat increased”.
For Polyoxyethylene (10) oleyl ether, the “Residual activity, %” value (lipase [3]) was 55%.
For “Sorbitan monolaurate [Sorbitan monolaurate (Span 20)]”, the “Relative rate of decomposition, %” value (lipase [2]) was 66%.
In the case of “Sorbitan monooleate [Sorbitan monooleate (Span 80)]”, the “Relative rate of decomposition, %” value (lipase [2]) is reported as 36% and the “Residual activity, %” value (lipase [3]) is reported as 56%.
For copper sulfate, the “Activation and deactivation (in words)” value (lipase [5]) is given as “Inhibited”.

— EP0204284A2, “A novel lipase” (SAPPORO BREWERIES LIMITED, priority 1985, dated 1986)
